Source: publication PMC11350868, “A Novel Bacitracin-like Peptide from Mangrove-Isolated Bacillus paralicheniformis NNS4-3 against MRSA and Its Genomic Insights” (Antibiotics, 2024)

Molecular target: T1, Proteinase K (Parengyodontium album, UniProt P06873)
T1 construct: purchased Sigma-Aldrich
Assay: Proteolytic enzyme stability (residual antibacterial activity)
Assay type: in vitro ADME
Details: Proteinase K 1 mg/mL, AMP 10 µg/mL, agar well diffusion vs MRSA strain 2468, relative to non-treated sample, mean ± SD, triplicate
Procedure: The AMP was dissolved in sterile purified water and adjusted to a final concentration of 10 µg/mL. The sensitivity of the AMP to temperatures of 60, 80, and 100 °C as well as autoclaving at 121 °C for 15 and 30 min was evaluated. The sensitivity of the AMP to proteolytic enzymes with different digesting characteristics was studied by incubating with a concentration of 1 mg/mL of proteinase K, trypsin, and α-chymotrypsin (Sigma-Aldrich, Warren, MI, USA). Surfactant compatibility of the AMP was examined by exposing the sample to 1% SDS and 1% Triton X-100 (AppliChem GmbH, Darmstadt, Germany). The propensity of the AMP for acid and base hydrolysis was examined by adjusting the pH of the solution to 1.2, 4.5, 6.8, and 7.4. After incubation, the pH of the AMP solution was neutralized to 7.4 before being assessed for antimicrobial activity. Following all treatments, the antibacterial assay using agar well diffusion against the MRSA strain 2468 was conducted in triplicate. The stability profiles are presented as the percentage of the activity relative to the untreated conditions (mean ± SD) and statistical significance was determined by the Student’s t-test at a p-value < 0.05.

T1 sequence (P06873 106-384): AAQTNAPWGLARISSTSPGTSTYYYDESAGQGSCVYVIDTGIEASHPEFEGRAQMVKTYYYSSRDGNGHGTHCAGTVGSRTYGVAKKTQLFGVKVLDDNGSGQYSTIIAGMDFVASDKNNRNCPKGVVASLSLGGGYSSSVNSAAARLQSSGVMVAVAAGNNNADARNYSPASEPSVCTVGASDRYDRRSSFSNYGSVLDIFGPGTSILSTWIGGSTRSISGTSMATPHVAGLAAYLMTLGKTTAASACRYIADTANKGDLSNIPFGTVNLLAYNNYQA

## CC(C)CC(NC(=O)C(N)CCCCN)C(=O)NC(CC(C)C)C(=O)NC(CCCCN)C(=O)NC(CC(=O)O)C(=O)NC(CC(C)C)C(=O)NC(Cc1ccccc1)C(=O)NC(Cc1c[nH]cn1)C(=O)NC(CC(=O)O)C(=O)NC(CC(N)=O)C(=O)O (single isomer, unassigned) [NNS4-3 AMP]
1 h
  % Residual Activity: 98.66 ± 1.68%
6 h
  % Residual Activity: 99.19 ± 1.07%
12 h
  % Residual Activity: 99.07 ± 3.08%
